Values of other authors, collected in US20120087859A1, “NANOCARRIER HAVING ENHANCED SKIN PERMEABILITY, CELLULAR UPTAKE AND TUMOUR DELIVERY PROPERTIES” (GWANGJU INSTITUTE OF SCIENCE AND TECHNOLOGY, priority 2010, published 2012).

Test system: NIH/3T3 fibroblasts
Details: cultured NIH/3T3 fibroblasts in vitro

CC(C)(O)C(=O)c1ccc(OCCO)cc1 [Irgacure 2959, 2-hydroxy-1-[4-(2-hydroxyethoxy)phenyl]-2-methyl-1-propanone]
cytotoxicity: almost non-cytotoxic
